Measurements as given in ChEMBL document CHEMBL4814045, “Discovery of novel Staphylococcus aureus penicillin binding protein 2a inhibitors by multistep virtual screening and biological evaluation” (Bioorg Med Chem Lett, 2021).
≈ marks a conversion by molar mass, not a printed value.

Assays:
[1] = test system: Staphylococcus aureus; assay: Antibacterial activity against Staphylococcus aureus […]; assay type: functional
[2] = test system: L02; assay: Cytotoxicity against human LO2 cells; assay type: cell-based
[3] = test system: Staphylococcus aureus; assay: Antibacterial activity against methicillin-resistant Staphylococcus aureus ATCC 33591; assay type: functional
[4] = test system: Staphylococcus aureus; assay: Antibacterial activity against methicillin-resistant Staphylococcus aureus 08 clinical isolate by broth dilution assay; assay type: functional
[5] = test system: Staphylococcus aureus; assay: Bactericidal activity against methicillin-resistant Staphylococcus aureus 03 clinical isolate by broth dilution assay; assay type: functional
[6] = test system: Staphylococcus aureus; assay: Bactericidal activity against methicillin-resistant Staphylococcus aureus 09 clinical isolate by broth dilution assay; assay type: functional
[7] = test system: Staphylococcus aureus; assay: Bactericidal activity against methicillin-resistant Staphylococcus aureus 13 clinical isolate by broth dilution assay; assay type: functional
[8] = test system: Staphylococcus aureus; assay: Bactericidal activity against methicillin-resistant Staphylococcus aureus 11 clinical isolate by broth dilution assay; assay type: functional
[9] = test system: Staphylococcus aureus; assay: Bactericidal activity against methicillin-resistant Staphylococcus aureus 01 clinical isolate by broth dilution assay; assay type: functional
[10] = test system: Staphylococcus aureus; assay: Bactericidal activity against methicillin-resistant Staphylococcus aureus 08 clinical isolate by broth dilution assay; assay type: functional
[11] = test system: Staphylococcus aureus; assay: Bactericidal activity against methicillin-resistant Staphylococcus aureus 07 clinical isolate by broth dilution assay; assay type: functional
[12] = test system: Staphylococcus aureus; assay: Bactericidal activity against methicillin-resistant Staphylococcus aureus 12 clinical isolate by broth dilution assay; assay type: functional
[13] = test system: Staphylococcus aureus; assay: Antibacterial activity against methicillin-resistant Staphylococcus aureus 11 clinical isolate by broth dilution assay; assay type: functional
[14] = test system: Staphylococcus aureus; assay: Bactericidal activity against methicillin-resistant Staphylococcus aureus 02 clinical isolate by broth dilution assay; assay type: functional
[15] = test system: Staphylococcus aureus; assay: Antibacterial activity against methicillin-resistant Staphylococcus aureus 12 clinical isolate by broth dilution assay; assay type: functional
[16] = test system: Staphylococcus aureus; assay: Bactericidal activity against methicillin-resistant Staphylococcus aureus 10 clinical isolate by broth dilution assay; assay type: functional
[17] = test system: Staphylococcus aureus; assay: Antibacterial activity against methicillin-resistant Staphylococcus aureus 03 clinical isolate by broth dilution assay; assay type: functional
[18] = test system: Staphylococcus aureus; assay: Bactericidal activity against methicillin-resistant Staphylococcus aureus 05 clinical isolate by broth dilution assay; assay type: functional
[19] = test system: Staphylococcus aureus; assay: Bactericidal activity against methicillin-resistant Staphylococcus aureus 04 clinical isolate by broth dilution assay; assay type: functional
[20] = test system: Staphylococcus aureus; assay: Bactericidal activity against methicillin-resistant Staphylococcus aureus 06 clinical isolate by broth dilution assay; assay type: functional

## CC(=O)Nc1ccc(NC(=O)COc2cc3c(c4oc(=O)c(C)c(C)c24)CCC(C)(C)O3)cc1
[1]
  MIC: 32 µg/mL (≈ 68.9 µM)
[2]
  IC50: > 20 µM
[3]
  MIC: 64 µg/mL (≈ 138 µM)

## CC[C@H](C)[C@@H](CC(=O)CNC(=O)CCc1c(C)c2cc3oc(C)c(-c4ccccc4)c3c(C)c2oc1=O)C(=O)O
[1]
  MIC: 32 µg/mL (≈ 58.6 µM)
[2]
  IC50: > 20 µM
[3]
  MIC: 64 µg/mL (≈ 117 µM)

## O=C(C[C@@H]1NC(=O)c2ccccc2NC1=O)NCCc1c[nH]c2ccc(OCc3ccccc3)cc12
[1]
  MIC: 64 µg/mL (≈ 133 µM)
[2]
  IC50: > 20 µM
[3]
  MIC: 32 µg/mL (≈ 66.3 µM)

## CN[C@H](CC(C)C)C(=O)N[C@H]1C(=O)N[C@@H](CC(N)=O)C(=O)N[C@H]2C(=O)N[C@H]3C(=O)N[C@H](C(=O)N[C@H](C(=O)O)c4cc(O)cc(O)c4-c4cc3ccc4O)[C@H](O)c3ccc(c(Cl)c3)Oc3cc2cc(c3O[C@@H]2O[C@H](CO)[C@@H](O)[C@H](O)[C@H]2O[C@H]2C[C@](C)(N)[C@H](O)[C@H](C)O2)Oc2ccc(cc2Cl)[C@H]1O [VANCOMYCIN]
[4]
  MIC: 8 µg/mL (≈ 5.52 µM)
[5]
  MBC: 128 µg/mL (≈ 88.3 µM)
[6]
  MBC: 32 µg/mL (≈ 22.1 µM)
[7]
  MBC: 64 µg/mL (≈ 44.2 µM)
[8]
  MBC: 64 µg/mL (≈ 44.2 µM)
[2]
  IC50: > 20 µM
[9]
  MBC: 32 µg/mL (≈ 22.1 µM)
[10]
  MBC: 64 µg/mL (≈ 44.2 µM)
[11]
  MBC: 32 µg/mL (≈ 22.1 µM)
[12]
  MBC: 128 µg/mL (≈ 88.3 µM)
[13]
  MIC: 16 µg/mL (≈ 11 µM)
[14]
  MBC: 64 µg/mL (≈ 44.2 µM)
[15]
  MIC: 8 µg/mL (≈ 5.52 µM)
[16]
  MBC: 128 µg/mL (≈ 88.3 µM)
[17]
  MIC: 8 µg/mL (≈ 5.52 µM)
[18]
  MBC: 64 µg/mL (≈ 44.2 µM)
[19]
  MBC: 128 µg/mL (≈ 88.3 µM)
[20]
  MBC: 8 µg/mL (≈ 5.52 µM)

## C[C@]12CCC(=O)C=C1CC[C@@H]1[C@H]2CC[C@@]2(C)[C@H]1CC[C@]2(O)C(=O)COC(=O)CCC(=O)N[C@H]1CCCCNC1=O
[1]
  MIC: 4 µg/mL (≈ 7.19 µM)
[2]
  IC50: 16.9 µM
[3]
  MIC: 4 µg/mL (≈ 7.19 µM)

## COc1ccc(CNC(=O)[C@@H](C)Oc2ccc3c(c2)c2cncc4c5cc(OC)c(OC)cc5c(=O)n3c42)c(OC)c1
[1]
  MIC: 64 µg/mL (≈ 113 µM)
[2]
  IC50: 6.4 µM
[3]
  MIC: 128 µg/mL (≈ 226 µM)
